Values of other authors as cited in patent publication US7101871B2, “Beta-amino heterocyclic dipeptidyl peptidase inhibitors for the treatment or prevention of diabetes” (Merck & Co., Inc., priority 2002, dated 2006).

How the values were obtained:
cardiac allograft = conditions: rats; doubled from day 7 to day 14
hematopoiesis = conditions: mouse, cyclophosphamide-induced neutropenia (WO 99/56753)
[1] = test system: GRF degradation in plasma

CC(C)N1CCC(c2ccccc2)(c2ccccc2)CC1 [Prodipine, Pro-Pro-diphenyl-phosphonate]
cardiac allograft survival (cardiac allograft): 14 day

CC(C)[C@H](N)C(=O)N1CCC[C@H]1B(O)O [Val-Boro-Pro]
effect on hematopoiesis (hematopoiesis): stimulated hematopoiesis

CC[C@H](C)[C@H](N)C(=O)N1CCC[C@H]1C(=O)N[C@H](C(=O)O)[C@@H](C)CC [diprotin A]
effect on degradation of GRF to GRF[3-44] in plasma [1]: prevented
